Data on twelve molecules can be found in US20200291018A1, “TAM KINASE INHIBITORS” (SYROS PHARMACEUTICALS, INC., priority 2017, published 2020).

The structures appear in SMILES notation.

The target in one test is T1, AXL (Homo sapiens, UniProt P30530).
T1 sequence (P30530 26-894): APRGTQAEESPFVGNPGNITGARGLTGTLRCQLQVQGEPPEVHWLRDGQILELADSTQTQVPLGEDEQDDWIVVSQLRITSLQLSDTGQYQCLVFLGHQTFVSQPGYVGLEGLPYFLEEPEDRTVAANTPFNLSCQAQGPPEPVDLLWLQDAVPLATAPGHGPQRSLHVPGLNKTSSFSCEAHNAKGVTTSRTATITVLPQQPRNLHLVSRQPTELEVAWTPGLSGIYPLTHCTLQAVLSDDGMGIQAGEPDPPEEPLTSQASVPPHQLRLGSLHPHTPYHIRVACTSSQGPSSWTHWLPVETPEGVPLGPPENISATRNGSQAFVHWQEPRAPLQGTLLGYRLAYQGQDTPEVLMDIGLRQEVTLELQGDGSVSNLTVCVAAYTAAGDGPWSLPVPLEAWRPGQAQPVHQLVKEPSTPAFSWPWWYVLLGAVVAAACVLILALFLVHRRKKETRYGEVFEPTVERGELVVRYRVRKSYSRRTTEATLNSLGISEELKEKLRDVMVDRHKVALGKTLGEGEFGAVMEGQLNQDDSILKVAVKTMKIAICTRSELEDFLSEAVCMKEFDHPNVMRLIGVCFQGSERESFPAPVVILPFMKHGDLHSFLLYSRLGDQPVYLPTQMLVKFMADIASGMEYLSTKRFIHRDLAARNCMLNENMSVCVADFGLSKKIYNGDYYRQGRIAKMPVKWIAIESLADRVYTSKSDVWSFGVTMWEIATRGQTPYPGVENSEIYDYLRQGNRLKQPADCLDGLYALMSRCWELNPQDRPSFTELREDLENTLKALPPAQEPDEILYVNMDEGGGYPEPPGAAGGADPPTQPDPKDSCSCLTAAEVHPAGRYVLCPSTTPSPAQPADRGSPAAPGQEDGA
Put plainly: TR-FRET kinase activity assay, AXL. Particulars: ATP at Km, 60 minutes. In kind it is biochemical. An outline of the steps:
(§1)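 Enzyme, fluorescent-labeled peptide substrate and compound were mixed, then ATP was added at each enzyme's Km. Buffer was 50 mM HEPES pH 7.5, 10 mM MgCl2, 1 mM EGTA, 0.01% Brij 35, 1 mM DTT at RT. After 60 min, EDTA quench and 30 min with Eu-anti-phosphotyrosine-site antibody; TR-FRET read gave IC50.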

The next test deals with T2, FLT3 (Homo sapiens, UniProt P36888).
T2 sequence (P36888 27-993): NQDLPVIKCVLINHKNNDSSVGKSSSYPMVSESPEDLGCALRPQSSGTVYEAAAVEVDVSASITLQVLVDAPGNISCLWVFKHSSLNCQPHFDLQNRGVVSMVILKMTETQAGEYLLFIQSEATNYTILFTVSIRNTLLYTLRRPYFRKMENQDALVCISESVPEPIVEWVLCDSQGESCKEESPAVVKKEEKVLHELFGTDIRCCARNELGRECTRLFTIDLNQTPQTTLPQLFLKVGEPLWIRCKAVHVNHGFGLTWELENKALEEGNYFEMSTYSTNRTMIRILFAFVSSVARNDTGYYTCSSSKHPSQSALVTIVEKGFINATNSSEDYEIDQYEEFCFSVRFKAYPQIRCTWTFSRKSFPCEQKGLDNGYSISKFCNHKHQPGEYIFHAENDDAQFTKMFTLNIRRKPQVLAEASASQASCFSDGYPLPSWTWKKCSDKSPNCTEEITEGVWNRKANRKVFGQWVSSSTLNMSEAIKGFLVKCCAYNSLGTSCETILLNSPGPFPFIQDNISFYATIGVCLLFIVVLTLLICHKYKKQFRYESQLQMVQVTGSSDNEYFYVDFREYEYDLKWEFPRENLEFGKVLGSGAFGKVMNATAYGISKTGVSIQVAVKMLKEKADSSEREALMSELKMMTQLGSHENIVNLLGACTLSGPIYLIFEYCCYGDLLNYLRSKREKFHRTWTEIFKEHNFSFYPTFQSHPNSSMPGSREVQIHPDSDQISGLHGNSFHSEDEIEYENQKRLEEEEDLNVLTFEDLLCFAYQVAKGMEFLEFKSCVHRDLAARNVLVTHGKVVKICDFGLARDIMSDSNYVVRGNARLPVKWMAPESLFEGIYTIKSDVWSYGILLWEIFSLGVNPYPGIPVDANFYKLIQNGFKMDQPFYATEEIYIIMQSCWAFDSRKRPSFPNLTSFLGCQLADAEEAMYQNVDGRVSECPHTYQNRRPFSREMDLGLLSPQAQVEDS
Put plainly: TR-FRET kinase activity assay, FLT3. The class given is biochemical. Particulars: ATP at Km, 60 minutes. An outline of the steps:
as §1

For `CC[C@H](C)Nc1ncc2c(=O)n([C@H]3CC[C@H](N(C)C)C3)cc([C@H]3CC[C@H](O)CC3)c2n1` [Compound 266], the IC50 is 100 to 1000 nM against AXL and 1000 to 10000 nM against FLT3.

On to `CC[C@H](C)Nc1ncc2c(O[C@H]3CC[C@H](N(C)C)C3)ncc([C@H]3CC[C@H](O)CC3)c2n1` [Compound 267], for which the IC50 at AXL is not above 100 nM; at FLT3, 100 to 1000 nM.

Turning to `CC(C)(C)Nc1ncc2c(OC3CCNCC3)ncc([C@H]3CC[C@H](O)CC3)c2n1` [Compound 268], the IC50 against AXL was in the range of 100 to 1000 nM; at FLT3, 1000 to 10000 nM.

Take `O[C@H]1CC[C@H](c2cnc(OC3CCNCC3)c3cnc(Nc4ccc(F)cc4)nc32)CC1` [Compound 269]: the IC50 on AXL and against FLT3 was not above 100 nM in each case.

As for `O[C@H]1CC[C@H](c2cnc(OC3CCNCC3)c3cnc(Nc4cccc(F)c4)nc32)CC1` [Compound 270], the IC50 at AXL and against FLT3 was not above 100 nM each time.

For the molecule `CC[C@H](C)Nc1ncc2c(=O)n(-c3ccc(N)cc3)cc([C@H]3CC[C@H](O)CC3)c2n1` [Compound 271], the IC50 against AXL and on FLT3 was 1000 to 10000 nM throughout.

Regarding `COC(=O)c1ccc(Nc2ncc3c(OC4CCNCC4)ncc([C@H]4CC[C@H](O)CC4)c3n2)cc1` [Compound 272], the figures for the IC50 on AXL and on FLT3 were not above 100 nM and 100 to 1000 nM, respectively.

Consider `CCOc1ncc([C@H]2CC[C@H](O)CC2)c2nc(N[C@@H](C)COC)ncc12` [Compound 273], for which the values for the IC50 against AXL and against FLT3 were 100 to 1000 nM and 1000 to 10000 nM, respectively.

On to `CC(C)Nc1ncc2c(OC3CCOCC3)ncc(-c3cccc(CC#N)c3)c2n1` [Compound 274], for which the results for the IC50 against AXL and against FLT3 were 100 to 1000 nM and 1000 to 10000 nM, respectively.

In the case of `CC[C@H](C)Nc1ncc2c(OC3C[C@@H](C)O[C@@H](C)C3)ncc([C@H]3CC[C@H](O)CC3)c2n1` (stereo partly drawn) [Compound 275], the IC50 against AXL and against FLT3 was 1000 to 10000 nM throughout.

Regarding `CC(C)Nc1ncc2c(OC3CCOCC3)ncc(-c3cccc(CC(=O)O)c3)c2n1` [Compound 276], the half-inhibitory concentration (IC50) against AXL and at FLT3 was 1000 to 10000 nM in each case.

Consider `O[C@H]1CC[C@H](c2cnc(OC3CCOCC3)c3cnc(N[C@H]4CCNC4)nc32)CC1` [Compound 277], for which the IC50 on AXL and against FLT3 was 1000 to 10000 nM in each case.
